Measurements from patent publication US12612408B2, “Pyrazolone-fused pyrimidine compound, preparation method for same and applications thereof” (SHANGHAI PHARMACEUTICALS HOLDING CO., LTD., priority 2019, dated 2026).

Legend:
WEE1 kinase = biological target: T1, WEE1 kinase (Homo sapiens, UniProt P30291); assay: Inhibitory effect of compound on WEE1 kinase in vitro (ELISA); type: biochemical; conditions: ATP concentration of Km
T1 construct: purchased CarnaBiosciences, Inc. 05-177
Procedure: The tested compounds were screened on WEE1 kinase with ATP concentration of Km by ELISA. Compounds were screened on WEE1 kinase to evaluate the kinase inhibitory activity of the tested compounds. In the detection process, the initial concentration of the tested compounds was all selected as 100 nM, and each compound was selected with 6 gradient dilution concentrations, the gradient dilution ratio was 4-fold, and two replicate wells were detected for each concentration, MK1775 was used as the standard control.
WEE1, purchased from CarnaBiosciences, Inc., Item No. 05-177; dimethyl sulfoxide, purchased from Sigma-Aldrich, Item No. D8418; ATP, purchased from Sigma-Aldrich, Item No. A7699; DTT solution, purchased from Sigma-Aldrich, Item No. 43816; protein tyrosine kinase (PTK) substrate (poly-Glu-Tyr), purchased from Sigma-Aldrich, Item No. P4476; P-Tyr (PY99), purchased from Santa Cruz, Item No. sc-7020; Anti-mouse IgG HRP-linked Antibody, purchased from Santa Cruz, Item No. 7076S; TMB liquid Substrate System, purchased from Sigma-Aldrich, Item No. T0440; Costar Stripwell Microplate No Lid 1×8 Flat Bottom, Certified High Binding, purchased from Sigma-Aldrich, Item No. 42592; 96-well compound plate, purchased from Thermo Scientific, Item No. 267245.
• 1. Coating substrate: 1) An appropriate volume of substrate storage solution protein tyrosine kinase (PTK) substrate (poly-Glu-Tyr) was taken, diluted 10 times with PBS, and the concentration was diluted from […]. The mixture was added to a high adsorption 96-well plate at 125 μL per well. The plate was placed in an incubator at 37° C. for overnight coating. 2) After 24 hours, the 96-well plate was taken out, the liquid in the 96-well plate was poured out, cleaned with washing buffer for 3 times, and the incubator at 37° C. was inverted and dried for 2 hours. • 2. Compound preparation and transfer: 1) compound dilution: 10 mM of the test compound storage solution was taken, the compound in 96-well compound plate was diluted with DMSO in multiple steps to obtain the initial concentration of 100× compound as the first concentration, and then DMSO was used for 4-fold gradient dilution, for a total of 6 concentrations; after that, 2 μL of the gradient dilution solution was added to 48 μL of 1× reaction buffer respectively to prepare 4× compound; 2) 4× compounds were transferred: 10 μL of 4× compounds from the 96-well compound plate configured in the previous step were transferred into the dried high adsorption 96-well plate; 10 μL of the following liquids were added to the compound-free control wells and ATP-control wells: 2 μL of DMSO was added to 48 μL of 1× reaction buffer. • 3. Enzyme reaction stage: 1) WEE1 kinase and ATP were prepared into 2× enzyme solution and 4×ATP solution respectively with 1× reaction buffer. In this screening, the final concentration of WEE1 kinase was: 0.15 ng/μL and the final concentration of ATP was: […]; 2) 20 μL of enzyme solution of 2 was added to the high adsorption 96-well plate; 3) 10 μL of 4×ATP solution was added to the high adsorption 96-well plate and 10 μL of 1× reaction buffer was added to the ATP-control group; 4) the plate was placed in HERAEUS Multifuge X1R centrifuge at 2000 rpm for 20 s and then placed at room temperature and reacted for 60 min. • 4. Reaction termination stage: 1) the reaction mixture in the plate was poured out, 200 μL of washing buffer was added to each well, and washed for 5 times; the primary antibody P-Tyr (PY99) (dilution ratio 1:2000) was added, 100 μL per well, at room temperature for 30 min. 2) The primary antibody in the plate was poured out, 200 μL of washing buffer was added to each well, and washed for 5 times; the second antibody Anti-mouse IgG HRP-linked Antibody (dilution ratio 1:2000) was added, 100 μL per well, at room temperature for 30 min.

[1] = Bioavailability test in vivo in mice (pharmacokinetics, iv and intragastric); design: species or system ICR mice
Procedure: 404.6 μL of DMSO was added to the compound powder of the present disclosure until the compound was completely dissolved, and 50 mg/mL mother liquor was prepared in a clarified state.
The compound of the present disclosure: 24 μL of mother liquor was accurately measured, diluted to 4 mL according to the ratio of 0.9% normal saline:PEG400=8:2, the preparation concentration was 0.3 mg/mL, the solution was in a clarified state, and it was used as intravenous administration solution. In addition, 80 μL mother liquor was accurately measured, and 0.5% CMC-Na was added to 8 mL to grind it into a uniform suspension with a concentration of 0.5 mg/mL, which was used as intragastric administration solution.
Intravenous group: 24 ICR mice, 20±2 g, were given the intravenous administration solution of the compound of the present disclosure by intravenous injection, with the volume of 10 mL/kg, with the dose of 3 mg/kg, the blood was taken from the fundus venous plexus of mice, 2, 5, 15, 30, 60, 90, 120, 240, 360, 480, 600 and 1440 minutes before and after administration.
Intragastric group: 24 ICR mice, 20±2 g, were given the intragastric administration solution of the compound of the present disclosure by intragastric injection, with the volume of 20 mL/kg, with the dose of 10 mg/kg, the blood was taken from the fundus venous plexus of mice, 5, 15, 30, 60, 90, 120, 240, 360, 480, 600 and 1440 minutes before and after administration.
Blood sample was centrifuged at 8000 rpm for 5 min, and the plasma was stored in a centrifuge tube at −20° C. for later use.
300 μL of acetonitrile containing internal standard (Propranolol, 25 ng/mL) was added to 50 μL of plasma samples to precipitate protein, vortexed for 10 min, 6000 g, 4° C., centrifuged for 10 min; the supernatant before intravenous injection for 1 hour was taken, diluted 10 times with acetonitrile containing internal standard, the rest supernatant was kept undiluted, centrifuged for 10 min again at 6000 g, 4° C., and the supernatant was taken and then injected into a 96-well plate.
(§1) Dose; peak concentration: Cmax; peak time: Tmax; area under the drug-time curve from AUClast 0 to time t; half-life: T1/2; mean retention time: MRT; clearance: Cl; apparent distribution volume: Vz; steady-state distributed volume: Vss; absolute bioavailability: F.
The pharmacokinetic parameters of the compound in mice after intravenous injection or intragastric administration were shown in Table 4 and Table 5 below.

[2] = Bioavailability test in vivo in cynomolgus monkey (pharmacokinetics, IV and PO); conditions: cynomolgus monkeys
Procedure: Twelve male Non-Naïve cynomolgus monkeys were purchased from GuangxiGuidong Primate Development Experiment Co. LTD.
54.31 mg of I-8-1 was accurately weighed, and 1.08 mL of DMSO was added, then the mixture was vortexed for 1 min, sonicated for 15 min, and then diluted to 36 mL according to the ratio of 10% HP-β-cyclodextrin (prepared by normal saline): PEG=8:2, vortexed for 1 min. A colorless clarified administration solution (the pH value was about 7) at a concentration of 1.5 mg/mL was prepared for intravenous administration to Group 1.
300.9 mg of I-8-1 was accurately weighed, and 75 mL of 0.5% CMC-Na was added, the mixture was fully ground and stirred for 5 min. A white suspension (the pH value was about 7) at a concentration of 4 mg/mL was prepared for oral administration to Group 2.
54.05 mg of AZD1775 was accurately weighed, and 1.08 mL of DMSO was added, then he mixture was vortexed for 1 min, sonicated for 15 min, and then diluted to 36 mL according to the ratio of 10%-D-cyclodextrin (prepared by normal saline): PEG=8:2, vortexed for 1 min. A yellow clarified administration solution (the pH value was about 7) at a concentration of 1.5 mg/mL was prepared for intravenous administration to Group 3.
300.7 mg of AZD1775 was accurately weighed, and 75 mL of 0.5% CMC-Na was added, the mixture was fully ground and stirred for 5 min. A yellow suspension (the pH value was about 7) at a concentration of 4 mg/mL was prepared for oral administration to Group 4.
Before administration, all animals were fasted overnight (approximately 12 hours) and fed as required and administered according to the table below.
Intravenous group: before administration (0 h), 0.033 h, 0.083 h, 0.25 h, 0.5 h, 1 h, 1.5 h, 2 h, 4 h, 6 h, 8 h, 12 h, 24 h after administration.
Oral group: before administration (0 h), 0.083 h, 0.25 h, 0.5 h, […], 2 h, 4 h, 6 h, 8 h, 12 h, 24 h after administration.
Blood samples were collected by puncture through lower limb vein or other suitable blood vessels at 1 mL/time point (3 mL of blood samples were collected from each animal before administration), anticoagulated with heparin sodium, and placed on ice after collection. Plasma was separated at 2200 g/min, 10 min, 2-8° C., plasma samples were stored in a −80° C. refrigerator before being transferred to the client. Plasma samples are stored in dry ice and transferred to the client. The final treatment of the sample will be recorded in the experimental record.
300 μL of acetonitrile was added to 50 μL of plasma samples containing internal standard (Propranolol, 25 ng/mL) to precipitate protein, vortexed for 10 min, centrifuged at 6000 g for 10 min, after I-8-1&AZD1775 intravenous injection group was diluted 10 times with internal standard acetonitrile (Propranolol, 25 ng/mL) at the time point before 1 hour, the remaining supernatant was not diluted, centrifuged again at 6000 g at 4° C. for 10 min, and the supernatant was taken and injected into a 96 well plate.
as §1
The pharmacokinetic parameters of the compound in cynomolgus monkeys after intravenous injection or intragastric administration were shown in Table 6 below.

[3] = ICR, mouse, plasma, iv, 3 mg/kg
[4] = ICR, mouse, plasma, po (intragastric), 10 mg/kg
[5] = male, cynomolgus monkey, plasma, iv, 3 mg/kg
[6] = male, cynomolgus monkey, plasma, po, 20 mg/kg, fasted

T1 sequence (P30291 whole entry): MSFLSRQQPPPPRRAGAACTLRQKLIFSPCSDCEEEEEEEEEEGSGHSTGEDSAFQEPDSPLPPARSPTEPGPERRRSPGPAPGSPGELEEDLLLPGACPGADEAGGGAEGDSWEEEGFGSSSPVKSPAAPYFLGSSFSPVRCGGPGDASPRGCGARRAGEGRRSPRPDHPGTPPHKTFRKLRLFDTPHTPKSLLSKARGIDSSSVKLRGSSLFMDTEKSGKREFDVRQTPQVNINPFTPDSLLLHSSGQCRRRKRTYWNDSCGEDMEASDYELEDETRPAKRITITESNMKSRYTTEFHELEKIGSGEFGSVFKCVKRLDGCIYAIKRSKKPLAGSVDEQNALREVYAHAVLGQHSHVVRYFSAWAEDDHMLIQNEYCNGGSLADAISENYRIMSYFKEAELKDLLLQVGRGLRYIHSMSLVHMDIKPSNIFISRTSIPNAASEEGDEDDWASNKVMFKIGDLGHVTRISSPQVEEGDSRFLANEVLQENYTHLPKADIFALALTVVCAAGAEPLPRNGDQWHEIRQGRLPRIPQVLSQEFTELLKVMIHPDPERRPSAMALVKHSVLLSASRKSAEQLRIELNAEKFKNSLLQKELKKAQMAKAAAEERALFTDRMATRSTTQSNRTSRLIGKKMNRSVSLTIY

Structure (SMILES): C=CCn1c(=O)c2cnc(Nc3ccc(C4CCC(NS(C)(=O)=O)CC4)cc3)nc2n1-c1cccc(C(C)(C)O)n1 (centres unmarked) [Compound I-19, N-(4-(4-((2-allyl-1-(6-(2-hydroxypropan-2-yl)pyridin-2-yl)-3-oxo-2,3-dihydro-1H-pyrazolo[3,4-d]pyrimidin-6-yl)amino)phenyl)cyclohexyl)methanesulfonamide]
- IC50 (WEE1 kinase): 3.89 nM

Structure (SMILES): C=CCn1c(=O)c2cnc(Nc3ccc(C4CCC(C(=O)N(C)C)CC4)cc3)nc2n1-c1cccc(C(C)(C)O)n1 (centres unmarked) [Compound I-6]
- IC50 (WEE1 kinase): 6.76 nM

Structure (SMILES): C=CCn1c(=O)c2cnc(Nc3ccc(C4CCC(C(=O)NC5CC5)CC4)cc3)nc2n1-c1cccc(C(C)(C)O)n1 (centres unmarked) [Compound I-17]
- IC50 (WEE1 kinase): 4.05 nM

Structure (SMILES): C=CCn1c(=O)c2cnc(Nc3ccc(C4CC(N(C)C)C4)cc3)nc2n1-c1cccc(C(C)(C)O)n1 (centres unmarked) [Compound I-31, 2-allyl-6-((4-(3-(dimethylamino)cyclobutyl)phenyl)amino)-1-(6-(2-hydroxypropan-2-yl)pyridin-2-yl)-1,2-dihydro-3H-pyrazolo[3,4-d]pyrimidin-3-one]
- IC50 (WEE1 kinase): 2.05 nM

Structure (SMILES): C=CCn1c(=O)c2cnc(Nc3ccc(C4CCC(N5CCOC5=O)CC4)cc3)nc2n1-c1cccc(C2(O)COC2)n1 (centres unmarked) [Compound I-37]
- IC50 (WEE1 kinase): 1.99 nM

Structure (SMILES): C=CCn1c(=O)c2cnc(Nc3ccc(C4CCC(C#N)CC4)cc3)nc2n1-c1cccc(C2(O)COC2)n1 (centres unmarked) [Compound I-38]
- IC50 (WEE1 kinase): 1.68 nM

Structure (SMILES): C=CCn1c(=O)c2cnc(Nc3ccc(N4CCN(C)CC4)cc3)nc2n1-c1cccc(C(C)(C)O)n1 [Control 1, reference compound]
- Cmax [1, 3]: 774 ± 53.8 ng/mL
- MRT [1, 3]: 0.42 ± 0.02 h
- Tmax [1, 3]: 0.05 ± 0.03 h
- clearance [1, 3]: 183 mL/min/kg
- half-life [1, 3]: 0.65 ± 0.03 h
- Vd ([1]; ICR, mouse, plasma, iv, 3 mg/kg, iv, 3 mg/kg, read-out: Vss): 4.58 ± 0.44 L/kg
- Vd ([1]; ICR, mouse, plasma, iv, 3 mg/kg, iv, 3 mg/kg, read-out: Vz): 10.3 ± 1.12 L/kg
- bioavailability ([1]; ICR, mouse, plasma, po 10 mg/kg vs iv 3 mg/kg, read-out: F (absolute bioavailability)): 16.7%
- Cmax [1, 4]: 205 ± 124 ng/mL
- MRT [1, 4]: 4.33 ± 0.28 h
- Tmax [1, 4]: 0.33 ± 0.14 h
- half-life [1, 4]: 3.1 ± 0.22 h
- AUClast ([1]; iv, 3 mg/kg): 273.1 ± 21.34 (h) (ng/mL)
- AUClast ([1]; po (intragastric), 10 mg/kg): 151.7 ± 62.14 (h) (ng/mL)
- AUCextra ([2]; iv, 3 mg/kg): 47.62 ± 58.18 (h)*(ng/mL)
- AUClast ([2]; iv, 3 mg/kg): 4494 ± 1719 (h)*(ng/mL)
- AUCtot ([2]; iv, 3 mg/kg): 4542 ± 1777 (h)*(ng/mL)
- thalf ([2]; iv, 3 mg/kg): 2.78 ± 0.26 h
- AUCextra ([2]; po, 20 mg/kg, fasted): 8.46 ± 1.91 (h)*(ng/mL)
- AUClast ([2]; po, 20 mg/kg, fasted): 8155 ± 818.2 (h)*(ng/mL)
- AUCtot ([2]; po, 20 mg/kg, fasted): 8163 ± 819.7 (h)*(ng/mL)
- thalf ([2]; po, 20 mg/kg, fasted): 2.03 ± 1.22 h
- Vd ([2]; male, cynomolgus monkey, plasma, iv, 3 mg/kg, iv, 3 mg/kg, read-out: Vss): 4.33 ± 0.74 L/kg
- Vd ([2]; male, cynomolgus monkey, plasma, iv, 3 mg/kg, iv, 3 mg/kg, read-out: Vz): 2.84 ± 0.76 L/kg
- Cmax [2, 5]: 1200 ± 134 ng/mL
- MRT [2, 5]: 6.53 ± 2.51 h
- Tmax [2, 5]: 2.69 ± 4.6 h
- clearance [2, 5]: 12 mL/min/kg
- bioavailability ([2]; male, cynomolgus monkey, plasma, po 20 mg/kg vs iv 3 mg/kg, read-out: BA (absolute bioavailability)): 27.2%
- Cmax [2, 6]: 1630 ng/mL
- MRT [2, 6]: 3.58 ± 0.07 h
- Tmax [2, 6]: 2 h
